The supplement of paper PMC10307832

Experiments:
Assay in all cases: relative viability (nuclei count vs DMSO), 5 days (fraction); higher = more cells survive
HCC-366 = tested on: HCC-366
Procedure, shortened: (§1)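 For relative viability, nuclei counts in treated wells were divided by those in vehicle wells. Lung cancer cell lines had been pin-tool dosed in 1536-well plates the day after seeding and cultured for 5 days, then fixed and stained in one step (final 0.05% Triton X-100, 1% formaldehyde, 1 ug/ml Hoechst) and imaged at 4×. Doses were one drug alone or a fixed anchor-drug dose plus five library-drug doses (not always all listed) in √10 steps, and values are duplicate-plate medians.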

NCI-H2342 = tested on: NCI-H2342
Procedure, shortened: as §1

NCI-H1734 = tested on: NCI-H1734
Procedure, shortened: as §1

CAL-12T = tested on: CAL-12T
Procedure, shortened: as §1

NCI-H1563 = tested on: NCI-H1563
Procedure, shortened: as §1

NCI-H1650 = tested on: NCI-H1650
Procedure, shortened: as §1

NCI-H1651 = tested on: NCI-H1651
Procedure, shortened: as §1

NCI-H460 = tested on: NCI-H460
Procedure, shortened: as §1

NCI-H1395 = tested on: NCI-H1395
Procedure, shortened: as §1

NCI-H838 = tested on: NCI-H838
Procedure, shortened: as §1

LU99A = tested on: LU99A
Procedure, shortened: as §1

LOU-NH91 = tested on: LOU-NH91
Procedure, shortened: as §1

NCI-H1355 = tested on: NCI-H1355
Procedure, shortened: as §1

NCI-H2023 = tested on: NCI-H2023
Procedure, shortened: as §1

BEN = tested on: BEN
Procedure, shortened: as §1

HCC-44 = tested on: HCC-44
Procedure, shortened: as §1

NCI-H1437 = tested on: NCI-H1437
Procedure, shortened: as §1

NCI-H1975 = tested on: NCI-H1975
Procedure, shortened: as §1

NCI-H1755 = tested on: NCI-H1755
Procedure, shortened: as §1

NCI-H441 = tested on: NCI-H441
Procedure, shortened: as §1

NCI-H358 = tested on: NCI-H358
Procedure, shortened: as §1

EKVX = tested on: EKVX
Procedure, shortened: as §1

NCI-H2085 = tested on: NCI-H2085
Procedure, shortened: as §1

NC(=O)Nc1cc(-c2cccc(F)c2)sc1C(=O)N[C@H]1CCCNC1 [AZD7762] + N=C(N)NC(=N)NCCc1ccccc1 [Phenformin] (partner 250 µM)
relative viability (HCC-366; first compound 0.01 µM): 0.601
relative viability (HCC-366; first compound 0.03162 µM): 0.615
relative viability (HCC-366; first compound 0.1 µM): 0.627
relative viability (HCC-366; first compound 0.3162 µM): 0.485
relative viability (HCC-366; first compound 1 µM): 0.312
relative viability (NCI-H2342; first compound 0.01 µM): 0.597
relative viability (NCI-H2342; first compound 0.03162 µM): 0.605
relative viability (NCI-H2342; first compound 0.1 µM): 0.72
relative viability (NCI-H2342; first compound 0.3162 µM): 0.567
relative viability (NCI-H2342; first compound 1 µM): 0.56
relative viability (NCI-H1734; first compound 0.01 µM): 0.44
relative viability (NCI-H1734; first compound 0.03162 µM): 0.44
relative viability (NCI-H1734; first compound 0.1 µM): 0.398
relative viability (NCI-H1734; first compound 0.3162 µM): 0.33
relative viability (NCI-H1734; first compound 1 µM): 0.211
relative viability (CAL-12T; first compound 0.01 µM): 0.605
relative viability (CAL-12T; first compound 0.03162 µM): 0.559
relative viability (CAL-12T; first compound 0.1 µM): 0.571
relative viability (CAL-12T; first compound 0.3162 µM): 0.321
relative viability (CAL-12T; first compound 1 µM): 0.114
relative viability (NCI-H1563; first compound 0.01 µM): 0.645
relative viability (NCI-H1563; first compound 0.03162 µM): 0.691
relative viability (NCI-H1563; first compound 0.1 µM): 0.687
relative viability (NCI-H1563; first compound 0.3162 µM): 0.612
relative viability (NCI-H1563; first compound 1 µM): 0.694
relative viability (NCI-H1650; first compound 0.01 µM): 0.51
relative viability (NCI-H1650; first compound 0.03162 µM): 0.48
relative viability (NCI-H1650; first compound 0.1 µM): 0.439
relative viability (NCI-H1650; first compound 0.3162 µM): 0.252
relative viability (NCI-H1650; first compound 1 µM): 0.18
relative viability (NCI-H1651; first compound 0.01 µM): 0.36
relative viability (NCI-H1651; first compound 0.03162 µM): 0.434
relative viability (NCI-H1651; first compound 0.1 µM): 0.319
relative viability (NCI-H1651; first compound 0.3162 µM): 0.268
relative viability (NCI-H1651; first compound 1 µM): 0.17
relative viability (NCI-H460; first compound 0.01 µM): 0.542
relative viability (NCI-H460; first compound 0.03162 µM): 0.468
relative viability (NCI-H460; first compound 0.1 µM): 0.467
relative viability (NCI-H460; first compound 0.3162 µM): 0.253
relative viability (NCI-H460; first compound 1 µM): 0.0452
relative viability (NCI-H1395; first compound 0.01 µM): 0.471
relative viability (NCI-H1395; first compound 0.03162 µM): 0.47
relative viability (NCI-H1395; first compound 0.1 µM): 0.491
relative viability (NCI-H1395; first compound 0.3162 µM): 0.434
relative viability (NCI-H1395; first compound 1 µM): 0.381
relative viability (NCI-H838; first compound 0.01 µM): 0.538
relative viability (NCI-H838; first compound 0.03162 µM): 0.566
relative viability (NCI-H838; first compound 0.1 µM): 0.669
relative viability (NCI-H838; first compound 0.3162 µM): 0.524
relative viability (NCI-H838; first compound 1 µM): 0.164
relative viability (LU99A; first compound 0.01 µM): 0.777
relative viability (LU99A; first compound 0.03162 µM): 0.934
relative viability (LU99A; first compound 0.1 µM): 0.868
relative viability (LU99A; first compound 0.3162 µM): 0.795
relative viability (LU99A; first compound 1 µM): 0.512
relative viability (LOU-NH91; first compound 0.01 µM): 0.783
relative viability (LOU-NH91; first compound 0.03162 µM): 0.76
relative viability (LOU-NH91; first compound 0.1 µM): 0.717
relative viability (LOU-NH91; first compound 0.3162 µM): 0.772
relative viability (LOU-NH91; first compound 1 µM): 0.525
relative viability (NCI-H1355; first compound 0.01 µM): 0.403
relative viability (NCI-H1355; first compound 0.03162 µM): 0.501
relative viability (NCI-H1355; first compound 0.1 µM): 0.456
relative viability (NCI-H1355; first compound 0.3162 µM): 0.49
relative viability (NCI-H1355; first compound 1 µM): 0.444
relative viability (NCI-H2023; first compound 0.01 µM): 0.446
relative viability (NCI-H2023; first compound 0.03162 µM): 0.394
relative viability (NCI-H2023; first compound 0.1 µM): 0.255
relative viability (NCI-H2023; first compound 0.3162 µM): 0.171
relative viability (NCI-H2023; first compound 1 µM): 0.1
relative viability (BEN; first compound 0.01 µM): 0.316
relative viability (BEN; first compound 0.03162 µM): 0.271
relative viability (BEN; first compound 0.1 µM): 0.222
relative viability (BEN; first compound 0.3162 µM): 0.266
relative viability (BEN; first compound 1 µM): 0.245
relative viability (HCC-44; first compound 0.01 µM): 0.154
relative viability (HCC-44; first compound 0.03162 µM): 0.265
relative viability (HCC-44; first compound 0.1 µM): 0.16
relative viability (HCC-44; first compound 0.3162 µM): 0.185
relative viability (HCC-44; first compound 1 µM): 0.121
relative viability (NCI-H1437; first compound 0.01 µM): 0.304
relative viability (NCI-H1437; first compound 0.03162 µM): 0.225
relative viability (NCI-H1437; first compound 0.1 µM): 0.328
relative viability (NCI-H1437; first compound 0.3162 µM): 0.343
relative viability (NCI-H1437; first compound 1 µM): 0.279
relative viability (NCI-H1975; first compound 0.01 µM): 0.425
relative viability (NCI-H1975; first compound 0.03162 µM): 0.411
relative viability (NCI-H1975; first compound 0.1 µM): 0.417
relative viability (NCI-H1975; first compound 0.3162 µM): 0.386
relative viability (NCI-H1975; first compound 1 µM): 0.328
relative viability (NCI-H1755; first compound 0.01 µM): 0.636
relative viability (NCI-H1755; first compound 0.03162 µM): 0.704
relative viability (NCI-H1755; first compound 0.1 µM): 0.656
relative viability (NCI-H1755; first compound 0.3162 µM): 0.596
relative viability (NCI-H1755; first compound 1 µM): 0.423
relative viability (NCI-H441; first compound 0.01 µM): 1.05
relative viability (NCI-H441; first compound 0.03162 µM): 0.732
relative viability (NCI-H441; first compound 0.1 µM): 0.91
relative viability (NCI-H441; first compound 0.3162 µM): 1.04
relative viability (NCI-H441; first compound 1 µM): 0.618
relative viability (NCI-H358; first compound 0.01 µM): 0.305
relative viability (NCI-H358; first compound 0.03162 µM): 0.401
relative viability (NCI-H358; first compound 0.1 µM): 0.334
relative viability (NCI-H358; first compound 0.3162 µM): 0.242
relative viability (NCI-H358; first compound 1 µM): 0.185
relative viability (EKVX; first compound 0.01 µM): 0.194
relative viability (EKVX; first compound 0.03162 µM): 0.244
relative viability (EKVX; first compound 0.1 µM): 0.245
relative viability (EKVX; first compound 0.3162 µM): 0.229
relative viability (EKVX; first compound 1 µM): 0.206
relative viability (NCI-H2085; first compound 0.01 µM): 0.647
relative viability (NCI-H2085; first compound 0.03162 µM): 0.806
relative viability (NCI-H2085; first compound 0.1 µM): 0.811
relative viability (NCI-H2085; first compound 0.3162 µM): 0.685
relative viability (NCI-H2085; first compound 1 µM): 0.496
